Data: patent US8188301B2, “Disubstituted phenylpyrrolidines as modulators of cortical catecholaminergic neurotransmission” (NSAB, Filial af NeuroSearch Sweden AB, Sverige, priority 2007, dated 2012)
Where a name gives a salt, the structure may show the parent alone. Read-outs that look alike come from different tables or passages of the source.

How the values were obtained:
[1] = tested on: DOPAC levels (3,4-dihydroxyphenylacetic acid) in the rat striatum; assay: Tissue content of DOPAC in rat striatum after systemic administration of test compound (in vivo neurochemistry); conditions: for change in vivo at 100 µmol/kg: sc, 1 h
Procedure: The measurement of the tissue content of DOPAC is well established in the field of research since the 1960's. In short, male Sprague-Dawely rats are administered the test compound 60 minutes prior to decapitation. The brain is rapidly taken out and dissected. The striatum is rapidly frozen and subsequently quantitatively analysed with respect to its content of DOPAC by means of HPLC and electrochemical detection. The number of animals used for each test compound/vehicle is 4/group.
Male Sprague-Dawley rats weighing 220-320 g are used throughout the experiments. Sixty (60) minutes following administration of the test substance, the rats are decapitated. Directly after decapitation the brain is removed from the skull and put on a glass petri bowl filled with ice. The limbic system (containing the nucleus accumbens—both the core and shell, most parts of the olfactory tubercle and ventral pallidum) is dissected using two thin, angled tweezers and put directly on foil on dry ice (carbon dioxide −78° C.). The striatum and cortex are then dissected and also put on dry ice. The time from decapitation until the last tissue is dissected varies from four to six minutes. The tissue is weighed using a Sartorius BP3105 connected to a computer and packed in labelled tin foil, then stored in an −80° C. freezer. Great care is taken in order to keep the tissue frozen until the time of neurochemical analysis. Each brain part is subsequently analyzed with respect to its content of monoamines and their metabolites.
The monoamine transmitter substances (NE (norepinephrine), DA (dopamine), 5-HT (serotonin)) as well as their amine (NM (normethanephrine), 3-MT (3-methoxy-tyramine)) and acid (DOPAC (3,4-dihydroxyphenylacetic acid), 5-HIAA (5-hydroxyindoleacetic acid), HVA (homovanillic acid)) metabolites are quantified in brain tissue homogenates by HPLC separations and electrochemical detection.
The analytical method is based on two chromatographic separations dedicated for amines or acids. Two chromatographic systems share a common auto injector with a 10-port valve and two sample loops for simultaneous injection on the two systems. Both systems are equipped with a reverse phase column (Luna C18(2), dp 3 μm, 50*2 mm i.d., Phenomenex) and electrochemical detection is accomplished at two potentials on glassy carbon electrodes (MF-1000, Bioanalytical Systems, Inc.). The column effluent is passed via a T-connection to the detection cell or to a waste outlet. This is accomplished by two solenoid valves, which block either the waste or detector outlet. By preventing the chromatographic front from reaching the detector, better detection conditions are achieved. The aqueous mobile phase (0.4 mL/min) for the acid system contains citric acid 14 mM, sodium citrate 10 mM, MeOH 15% (v/v) and EDTA 0.1 mM. Detection potentials relative to Ag/AgCl reference are 0.45 and 0.60V. The aqueous ion pairing mobile phase (0.5 mL/min) for the amine system contains citric acid 5 mM, sodium citrate 10 mM, MeOH 9% (v/v), MeCN 10.5% (v/v), decane sulfonic acid 0.45 mM, and EDTA 0.1 mM. Detection potentials relative to Ag/AgCl reference are 0.45 and 0.65V.

[2] = tested on: DOPAC levels (3,4-dihydroxyphenylacetic acid) in the rat striatum; conditions: 100 μmol/kg s.c., %-increase from control value, data taken from Table 2 in Ref 1 (J. Med. Chem. 1994, 37, 2735); cited from earlier work
[3] = tested on: extracellular levels of dopamine, norepinephrine and serotonin in p.f. cortex and striatum; assay: In vivo microdialysis in awake and freely moving rats; set-up: species or system rat; conditions: 10 mg/kg s.c., FIG. 21
[4] = rat striatum, 100 μmol/kg s.c., %-increase from control value, 60 minutes after administration
[5] = Rattus norvegicus, read-out: DOPAC %-increase, rat striatum, 100 μmol/kg s.c., %-increase from control value, 60 minutes after administration

| Structure (SMILES) | DOPAC %-increase [1, 4] | change in vivo at 100 µmol/kg [1, 5] [%] | further results |
| --- | --- | --- | --- |
| CCN1CCC(O)(c2cc(F)cc(F)c2)C1 (single isomer, unassigned; (+)) [Example 2, (+)-3-(3,5-DIFLUOROPHENYL)-1-ETHYLPYRROLIDIN-3-OL] | −16% | – | – |
| CCN1CCC(O)(c2cccc(F)c2F)C1 (single isomer, unassigned; (+)) [Example 36, (+)-3-(2,3-DIFLUOROPHENYL)-1-ETHYLPYRROLIDIN-3-OL] | −15% | – | – |
| OC1(c2cccc(F)c2F)CCN(CCC(F)(F)F)C1 (single isomer, unassigned; (-)) (as salt: oxalic acid salt) [Example 48, (−)-3-(2,3-DIFLUOROPHENYL)-1-(3,3,3-TRIFLUOROPROPYL)PYRROLIDIN-3-OL] | – | – | melting point: 144 °C |
| CCN1CCC(O)(c2cc(F)cc(F)c2)C1 (single isomer, unassigned; (-)) [Example 1, (−)-3-(3,5-DIFLUOROPHENYL)-1-ETHYLPYRROLIDIN-3-OL] | 0% | – | – |
| CCN1CCC(O)(c2cccc(F)c2F)C1 (single isomer, unassigned; (-)) [Example 32, (−)-3-(2,3-DIFLUOROPHENYL)-1-ETHYLPYRROLIDIN-3-OL] | +8% | – | – |
| CCN1CCC(O)(c2ccc(F)c(Cl)c2)C1 (stereo not drawn) [Example 3, 3-(3-CHLORO-4-FLUOROPHENYL)-1-ETHYLPYRROLIDIN-3-OL] | – | -28 | – |
| CCN1CCC(O)(c2cccc(F)c2F)C1 (stereo not drawn) [Example 4, 3-(2,3-DIFLUOROPHENYL)-1-ETHYLPYRROLIDIN-3-OL] | −10% | – | – |
| CCN1CCC(O)(c2cc(F)cc(Cl)c2)C1 (stereo not drawn) [Example 5, 3-(3-CHLORO-5-FLUOROPHENYL)-1-ETHYLPYRROLIDIN-3-OL] | – | -26 | – |
| CCN1CCC(O)(c2cc(Cl)cc(Cl)c2)C1 (stereo not drawn) [Example 6, 3-(3,5-DICHLOROPHENYL)-1-ETHYLPYRROLIDIN-3-OL] | – | -10 | – |
| CCCN1CCC(O)(c2ccc(F)c(F)c2)C1 (stereo not drawn) [Example 7, 3-(3,4-DIFLUOROPHENYL)-1-PROPYLPYRROLIDIN-3-OL] | – | 0 | – |
| CCN1CCC(O)(c2cc(F)cc(F)c2)C1 (stereo not drawn) [Example 8, 3-(3,5-DIFLUOROPHENYL)-1-ETHYLPYRROLIDIN-3-OL] | −24% | – | – |
| CCCN1CCC(O)(c2cc(F)cc(F)c2)C1 (stereo not drawn) [Example 9, 3-(3,5-DIFLUOROPHENYL)-1-PROPYLPYRROLIDIN-3-OL] | – | -5 | – |
| CCN1CCC(O)(c2ccc(Cl)c(Cl)c2)C1 (stereo not drawn) [Example 10, 3-(3,4-DICHLOROPHENYL)-1-ETHYLPYRROLIDIN-3-OL] | – | -26 | – |
| CN1CCC(F)(c2cc(F)cc(F)c2)C1 (stereo not drawn) [Example 11, 3-(3,5-DIFLUOROPHENYL)-3-FLUORO-1-METHYLPYRROLIDINE] | – | – | change in vivo at 100 µmol/kg ([1]; rat striatum, 100 μmol/kg s.c., %-increase from control value, 60 minutes after administration, read-out: DOPAC %-increase): -4% |
| CCN1CCC(O)(c2ccc(F)c(F)c2)C1 (stereo not drawn) [Example 12, 3-(3,4-DIFLUOROPHENYL)-1-ETHYLPYRROLIDIN-3-OL] | – | -19 | – |
| CCCN1CCC[C@@H](c2cccc(S(C)(=O)=O)c2)C1 [Example 16 of ref. 1] | – | – | DOPAC %-increase [2]: +150^2% |
| CN1CCN2c3ncccc3Cc3ccccc3C2C1 (stereo not drawn) [mirtazapine] | – | – | cortical NE levels [3]: marked increases in cortical NE levels; extracellular norepinephrine and dopamine in the cortex [3]: increase predominantly extracellullar norepinephrine and dopamine in the cortex |
